Data from publication PMC12526156, “Optimization of the Macrocyclic Tetrapeptide [D-Trp]CJ-15,208 to Prevent Stress-Induced Relapse of Cocaine-Seeking Behavior” (Molecules, 2025).
Values after ≈ are worked out from the molar mass of the structure shown. Where two headings read alike, the source gives them in different places. Where a SMILES comes first, the peptide text is derived from it. [ ]: non-standard residue; d: D form. dPhe(4-NO2) = N[C@H](Cc1ccc([N+](=O)[O-])cc1)C(=O)O; dPhe(4-Me) = Cc1ccc(C[C@@H](N)C(=O)O)cc1; dPhe(4-F) = N[C@H](Cc1ccc(F)cc1)C(=O)O; dPhe(2-F) = N[C@H](Cc1ccccc1F)C(=O)O

Assays:
[1] = biological target: T1, human MOR (Homo sapiens, UniProt P35372); test: biochemical; type: binding
T1 construct: expressed in transfected cells

[2] = biological target: T2, hKOR (Homo sapiens, UniProt P41145); test: KOR cAMP assay using GloSensor-22F, agonist mode (KOR-CHO-GLO cells); type: cell-based; details: for Emax at 10 µM: read-out: KOR Efficacy (%)
[3] = biological target: T2, hKOR; test: Competition binding, [3H]U69,593, hKOR-CHO membranes; details: for Ki: [3H]U69,593, human KOR, ± S.E.M., three independent experiments, read-out: KOR Ki
[4] = biological target: T2, hKOR; test: KOR cAMP assay using GloSensor-22F, antagonist mode (vs 10 nM U50,488); type: cell-based
From the text: A piggy-Bac (PB) transposon/transposase system was utilized to allow for the stable integration of the GloSensor-22F cAMP sensor (Promega, Madison, WI, USA) gene into genomic TTAA sites in Chinese hamster ovary cells already stably expressing the hKOR. The pFastBac hyperPB plasmid vector, which codes for the piggy-Bac transposon/transposase system, was utilized and was a kind gift from Dr. John Lueck. The multicistronic expression cassette developed for our experiments consisted of a CMV promoter driving constitutive expression of GloSensor-22F cAMP sensor, followed by an internal ribosome entry site (IRES) to drive the expression of codon-optimized HygR-P2A-mScarlet (hygromycin resistance gene and mScarlet separated by a 2A self-cleaving peptide element). To clone the expression cassette onto the pFastBac vector, the CMV promoter and GloSensor-22F were PCR amplified from pGloSensor-22F cAMP Plasmid (Promega), the IRES sequence was PCR amplified from pLVX-CMV-Galpha-oA ONE-GO (a gift from Dr. Mikel Garcia-Marcos, Addgene plasmid #189732), the HygR-P2A-mScarlet sequence was a kind gift from Dr. Lueck, and a bGH-poly(A) termination sequence was PCR amplified from pcDNA3.1(+). The pFastBac vector was linearized via overnight digestion with CspCI at 37 °C, which cuts between two inverted terminal repeat (ITR) sequences, and the corresponding backbone and all PCR fragments were gel purified and assembled via Gibson assembly using the Gibson Assembly MasterMix (New England Biolabs, Ipswich, MA, USA). The resulting pFastBac CMV GloSensor-22F IRES HygR-P2A-mScarlet bGH plasmid was transformed into NEB Stable Competent E. coli (New England Biolabs), miniprepped using the E.Z.N.A. Plasmid DNA Mini Kit (Omega Bio-Tek, Norcross, GA, USA), and sequence verified by nanopore whole-plasmid sequencing (Eurofins Genomics, Louisville, KY, USA).
3.0 × 10^6 hKOR-CHO cells were plated on a 6 cm dish and incubated for four h at 37 °C and 5% CO2 in DMEM (Corning Mediatech, Manassas, VA, USA) supplemented with 5% FBS (Corning Mediatech), 1% Penicillin/Streptomycin (Gibco, Waltham, MA, USA). The cells were then transfected with 2.0 μg pFastBac CMV GloSensor-22F IRES HygR-P2A-mScarlet bGH using PEI as a transfection reagent. The following day, transfected cells were reseeded onto a 10 cm dish at a density of 5.0 × 10^5 cells and 600 μg/mL hygromycin B (Gold Bio, St. Louis, MO, USA) was added to the culture media. Cells were cultured under selection antibiotics for seven days, and the selection process was monitored by the increase in abundance of mScarlet positive cells via epifluorescence microscopy.
Following the selection period, KOR-CHO-GLO cells were maintained at 37 °C and 5% CO2 in DMEM supplemented with 5% FBS, 1% Penicillin/Streptomycin and 300 μg/mL hygromycin B to reduce the likelihood of CMV promoter silencing. On the day of the assay, cells were detached with 0.05% trypsin (Gibco) and counted, then centrifuged (1000× g, 5 min) and resuspended in assay buffer (1xPBS, 0.1% glucose, 0.5 mM MgCl2) containing 4 mM D-luciferin substrate (Gold Bio) at approximately 2 million cells/mL. 25 μL of cells (~50,000/well) were seeded onto poly L-lysine-coated white 96-well flat bottom plates (Greiner Bio-One, Kremsmünster, Austria)) and returned to the incubator for 60 min. Following incubation, cells were allowed to equilibrate to room temperature protected from light (10–15 min). Initial luminescence readings (at least 10 cycles) were collected for each well using a FLUOstar Omega v.6.2 plate reader (BMG Labtech, Ortenberg, Germany), after which the plate was removed. Prepared 4x treatments of drug (25 μL) were added to appropriate wells followed by 50 μL of 20 μM forskolin (AmBeed, Buffalo Grove, IL, USA) before the plate was returned to the reader and luminescence measured until final plateau levels were achieved (20–30 min). Assays were performed in duplicate and repeated at least three times.

[5] = Metabolic stability in human liver microsomes; type: in vitro ADME; details: 1 mg protein/mL; for half-life at 1 µM / microsomal CLint at 1 µM: human liver microsomes; for half-life at 1 µM / half-life: 1 µM compound, 37 °C, read-out: HLM t1/2; for microsomal CLint at 1 µM / microsomal CLint: read-out: HLM CLint; for half-life / microsomal CLint: microsomes
Description: (§1) Evaluation of the metabolic stability of the macrocyclic tetrapeptides by human and mouse liver microsomes was performed by Curia Global (Buffalo, NY, USA). […]

[6] = Metabolic stability in mouse liver microsomes; type: in vitro ADME; details: 1 mg protein/mL; for half-life at 1 µM / microsomal CLint at 1 µM: mouse liver microsomes; for half-life at 1 µM / half-life: 1 µM compound, 37 °C, read-out: MLM t1/2; for microsomal CLint at 1 µM / microsomal CLint: read-out: MLM CLint; for half-life / microsomal CLint: microsomes
Description: as §1

[7] = Kinetic aqueous solubility; type: physicochemical; details: 1% DMSO, pH 7.4
From the text: Table A1 Stability of [D-Trp]- and [D-Phe^4]CJ-15,208 and selected analogs in human (HLMs) and mouse liver microsomes (MLMs)^1. and kinetic aqueous solubility. | column: Solubility ^2 / (µM)

[8] = system: C57BL/6J mice; test: 55 °C warm-water tail-withdrawal assay, antinociception; type: in vivo, mouse; details: 30 mg/kg, p.o., 30 min after administration
Description: For intracerebroventricular administration, peptides were dissolved in DMSO at a concentration of 20 mM (100 nmol/5 µL), then diluted to test doses in a final vehicle solution of 50%DMSO/50% saline (0.9%). For all other testing (for oral administration), peptides were made fresh each day for testing in a final vehicle solution of 10% DMSO/10% Solutol/80% saline (0.9%).
Intracerebroventricular injections were made directly into the lateral ventricle according to the modified steps detailed previously. The volume of all i.c.v. injections was 5 μL, using a 10 μL Hamilton microliter syringe. The mouse was lightly anesthetized with isoflurane, an incision was made in the scalp, and the injection was made 2 mm lateral and 2 mm caudal to bregma at a depth of 3 mm.
The dose response of analogs 3, 6, 9 and 14 were also assessed following administration of one of up to four additional oral (p.o.) doses (1–30 mg/kg).

[9] = [3H]DAMGO, human MOR, ± S.E.M., three independent experiments, read-out: MOR Ki

SMILES	Ki [3] [nM]	half-life at 1 µM [5] [min]	microsomal CLint at 1 µM [5] [µL/min/mg]	Ki [1, 9] [nM]	Emax at 10 µM [2] [%]	half-life at 1 µM [6] [min]	microsomal CLint at 1 µM [6] [µL/min/mg]	Selectivity (MOR Ki/KOR Ki) ([3]; MOR Ki/KOR Ki)	solubility kinetic [7] [µM]	other results
Cc1cc(C)cc([C@@H]2CCCN2Cc2ccc(Oc3ccc(C(N)=O)cc3F)cc2)c1 [Aticaprant, reference compound]	0.77 ± 0.1									Ki [1]: 15 ± 2 nM; activity type in the cAMP assay [2]: inverse agonist; KOR Efficacy (%) ([2]; mean % inhibition ± SEM at 10 µM relative to the KOR agonist U50,488, forskolin-stimulated cAMP): −48 ± 3.0 ^8%; Selectivity (MOR Ki/KOR Ki) [3]: 19; IC50 ([4]; antagonism of an IC80 concentration (10 nM) of U50,488 in the cAMP assay, ± SEM, read-out: KOR Antag. IC50): 8 ± 1.7 nM
O=C1N[C@H](Cc2cc(F)c(F)cc2F)C(=O)N[C@@H](Cc2ccccc2)C(=O)N2CCC[C@@H]2C(=O)N[C@H]1Cc1ccccc1 [Analog 10]	27 ± 3.3	1.5	462	270 ± 30	19 ± 6.8	1	699	10	7.4 (≈ 4.39 µg/mL)	IC50 [4]: 290 ± 40 nM
O=C1N[C@H](Cc2ccc(F)cc2)C(=O)N[C@@H](Cc2ccccc2)C(=O)N2CCC[C@@H]2C(=O)N[C@H]1Cc1ccccc1 [Analog 7] (cyclo(F[dP]F[dPhe(4-F)]))					5.5 ± 7.9				25 (≈ 13.9 µg/mL)	half-life [5]: 2.3 min; microsomal CLint [5]: 296 µL/min/mg; half-life [6]: 3.4 min; microsomal CLint [6]: 202 µL/min/mg
Cc1ccc(C[C@H]2NC(=O)[C@H](Cc3ccccc3)NC(=O)[C@H]3CCCN3C(=O)[C@H](Cc3ccccc3)NC2=O)cc1 [Analog 15] (cyclo(F[dP]F[dPhe(4-Me)]))					18 ± 1.4				24 (≈ 13.3 µg/mL)	half-life [5]: 5.4 min; microsomal CLint [5]: 129 µL/min/mg; half-life [6]: 2.9 min; microsomal CLint [6]: 236 µL/min/mg
COc1ccc(C[C@H]2NC(=O)[C@H](Cc3ccccc3)NC(=O)[C@H]3CCCN3C(=O)[C@H](Cc3ccccc3)NC2=O)cc1 [Analog 18, [D-Tyr(Me)^4]CJ-15,208] (cyclo(F[dP]F[dY](Me)))	150 ± 16									antinociception vs vehicle [8]: significant antinociception
O=C1N[C@H](Cc2ccccc2F)C(=O)N[C@@H](Cc2ccccc2)C(=O)N2CCC[C@@H]2C(=O)N[C@H]1Cc1ccccc1 [Analog 5] (cyclo(F[dP]F[dPhe(2-F)]))	39 ± 0.57	1.9	373	350 ± 22		1.6	430	9	15 (≈ 8.35 µg/mL)	
O=C1N[C@H](Cc2ccc([N+](=O)[O-])cc2)C(=O)N[C@@H](Cc2ccccc2)C(=O)N2CCC[C@@H]2C(=O)N[C@H]1Cc1ccccc1 [Analog 16] (cyclo(F[dP]F[dPhe(4-NO2)]))	7 ± 0.99	6.7	103	61 ± 2.7	7.3 ± 7.3	4.4	159	9	6.7 (≈ 3.91 µg/mL)	IC50 [4]: 210 ± 13 nM
